kon and koff data for three molecules are collected here from BindingDB's records for doi:10.1016/j.bmc.2019.06.020 (Shanghai Jiao Tong University, 2019).

By kon is commonly meant the second-order rate constant of association. The term koff denotes a measure of how fast the partners let go of each other.

Assay [1] addresses T1, Polypeptide N-acetylgalactosaminyltransferase 2 (Homo sapiens, UniProt Q10471). In words: Binding affinity of human recombinant FLAG-tagged ppGalNAcT2 expressed in HEK293 cells assessed as association rate by SPR analysis. Particulars: read-out: kon (M-1-s-1).
The target in assay [2] is T1, Polypeptide N-acetylgalactosaminyltransferase 2. In words: Binding affinity of human recombinant FLAG-tagged ppGalNAcT2 expressed in HEK293 cells assessed as dissociation rate by SPR analysis.

T1 sequence (Q10471 whole entry): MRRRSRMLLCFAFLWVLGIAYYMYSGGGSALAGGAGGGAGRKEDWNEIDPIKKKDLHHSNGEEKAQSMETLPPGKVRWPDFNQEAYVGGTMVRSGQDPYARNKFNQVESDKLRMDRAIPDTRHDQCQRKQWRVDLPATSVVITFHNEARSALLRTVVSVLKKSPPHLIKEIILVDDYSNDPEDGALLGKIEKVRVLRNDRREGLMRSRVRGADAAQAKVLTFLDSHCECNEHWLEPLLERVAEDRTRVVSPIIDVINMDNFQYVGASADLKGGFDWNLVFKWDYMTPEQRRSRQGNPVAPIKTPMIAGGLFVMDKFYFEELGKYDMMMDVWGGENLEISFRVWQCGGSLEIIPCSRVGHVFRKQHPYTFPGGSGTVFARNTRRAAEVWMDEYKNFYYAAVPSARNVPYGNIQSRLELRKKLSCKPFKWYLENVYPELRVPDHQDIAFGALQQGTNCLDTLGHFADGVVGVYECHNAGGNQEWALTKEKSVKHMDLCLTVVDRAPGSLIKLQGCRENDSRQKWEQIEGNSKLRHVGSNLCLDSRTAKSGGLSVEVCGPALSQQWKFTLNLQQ

As for `O=c1oc2c(O)c(O)cc3c(=O)oc4c(O)c(O)cc1c4c23` [Elagic Acid], the kon in assay [1] came to 2370 M⁻¹ s⁻¹. In assay [2], the koff is 0.000879 s⁻¹.

For the molecule `O=C(O)c1cc(O)c(O)c(O)c1` [Gallic Acid, F], the kon in assay [1] turned out to be 1450 M⁻¹ s⁻¹. Moreover, the off-rate constant (koff) in assay [2] was found to be 0.00134 s⁻¹.

For `O=c1oc2c(O)c(O)ccc2c2cc(O)c(O)cc12`, in assay [1], the association rate constant (kon) was determined as 3530 M⁻¹ s⁻¹. For the same molecule, the koff in assay [2] is 0.00104 s⁻¹.
